From paper PMC9413440, “An Iterative Approach Guides Discovery of the FabI Inhibitor Fabimycin, a Late-Stage Antibiotic Candidate with In Vivo Efficacy against Drug-Resistant Gram-Negative Infections” (ACS Central Science, 2022) come the findings set out here.

The test system of this assay is E. coli MG1655. Description: Whole-cell accumulation assay (LC-MS/MS). Format: cell-based, Escherichia coli. Here is the method:
II. Materials and Methods for Biological Experiments
S. aureus ATCC 29213 and E. coli MG1655 were obtained from the American Type Culture Collection (ATCC). E. coli BW25113 and E. coli JW5503 were obtained from the Keio Collection. AR-bank strains were obtained from the Centers for Disease Control and Prevention and FDA Antibiotic Resistance Isolate Bank. […]
The accumulation assay4 was performed in triplicate with each batch containing tetracycline as a positive control. E. coli MG1655 was used in these experiments. For each replicate, 2.5 mL of an overnight culture of E. coli was diluted into 250 mL of fresh Luria Bertani (LB) broth (Lennox) and grown at 37 °C with shaking to an optical density (OD600) of 0.55. The bacteria were pelleted at 3220 r.c.f. for 10 min at 4 °C and the supernatant was discarded. The pellets were resuspended in 40 mL of phosphate buffered saline (PBS) and pelleted as before, and the supernatant discarded. […] The number of colony-forming units (CFUs) was determined by a calibration curve. […] Supernatants were analyzed by LC-MS/MS.
Samples were analyzed with the […] LC-MS/MS system (AB Sciex) with a 1200 series HPLC system (Agilent Technologies) including a degasser, an autosampler, and a binary pump. […]
The source temperature was 450 °C. […] Multiple reaction monitoring was used for quantification. […] All compounds evaluated in biological assays were ≥95% pure.

For the compound `Cc1c(CN(C)C(=O)/C=C/c2cnc3c(c2)CCCC(=O)N3)oc2ccccc12` [compound 10], the whole-cell accumulation result is “reduced whole-cell accumulation”.
